Values joined by “and” are separate entries in the source; they are usually repeats but may differ in a detail not shown here. Identical values can stand only once.
Test system: MP2 cells co-cultured with NK (IL-2) cells
Assay: Enzymatic caspase-3 assay (CaspACE-3) in co-culture of pancreatic cancer cells and NK cells
Format: cell-based, human
Settings: 48 hours; for Casp-3, X1 / Casp-3, X2 / Casp-3, X3 / Casp-3, Mean: MP2 cells + NK (IL-2); for Casp-3, X1: experiment X1; for Casp-3, X1 / Casp-3, X2 / Casp-3, X3: RvD1 and DHA 50 nM; for Casp-3, X2: experiment X2; for Casp-3, X3: experiment X3; for Casp-3, Mean: mean of X1-X3; for caspase-3 expression (mean ± 2× standard error): PDAC (MP2) cells co-cultured with NK cells, as stated in text
Experimental: Mia Paca2 (MP2) and L3.6 cells from pancreatic ductal adenocarcinoma so (PDAC) were obtained from T. Donahue, UCLA Surgery and were propagated in Dulbecco's Modified Eagle's Medium (DME) with 10% foetal calf serum. 10,000 cells were plated in each well of 24-well plates and were grown at 37° C. and 24 h to near confluence before testing.
These were isolated from human blood by NK cell isolation kit (Stem cell technologies, Vancouver, Canada). NK cells were activated by treatment with IL-2 or IL2/CD16 as described in Tseng, H. C. et al. “Increased lysis of stem cells but not their differentiated cells by natural killer cells; de-differentiation or reprogramming activates NK cells.” PLOS One 5(7): e11590, 2010.
Composition of the invention (Nutrifriend 2000) containing DHA (1000 mg/200 ml) and EPA (1000 mg/200 ml) was purchased by the company Smartfish AS, Oslo, For use in cell culture, diluted 1:2 with fetal calf serum, sonicated for 30 sec and then diluted 1:100 in DMEM with 10% fetal calf serum.
NK cells were added to MP2 or L3.6 cells at a ratio of 5 NK cells per 1 MP2 cell. The co-cultures were treated with Smartfish. Addition of DHA (50 nM) or resolvin D1 (RvD1 from Cayman Chemical company, Ann Arbor, Mich., 50 nM) were tested as controls. The co-cultures is were grown for 48 hours, harvested and tested by the caspase-3 assay.
The enzymatic caspase-3 assay was performed by the CaspACE-3 assay G-7351 (Promega Corporation, Madison, Wis.) according to the manufacturer's instructions.
The data were analyzed by comparing the range of means (mean+/−2× standard error of mean). When indicated the exact value was calculated by the Fisher exact test.

| Structure (SMILES) | Casp-3, X1 [µM] | Casp-3, X2 [µM] | Casp-3, X3 [µM] | Casp-3, Mean [µM] | caspase-3 expression (mean ± 2× standard error) | caspase-3 expression (mean ± 2× standard error) (listed as resolvinD1) [µM] |
| --- | --- | --- | --- | --- | --- | --- |
| CC/C=C\C/C=C\C/C=C\C/C=C\C/C=C\C/C=C\CCC(=O)O [DHA, docosahexanoic acid] | 5.7 | 6.6 | 6 | 6.1 | 6.1 µM and 6.1 ± 0.48 µM |  |
| CC/C=C\C[C@H](O)/C=C/C=C\C=C\C=C\[C@@H](O)[C@@H](O)C/C=C\CCC(=O)O [RvD1, resolvin D1] | 6 | 6.3 | 6.6 | 6.3 | 6.3 ± 0.31 µM | 6.3 ± 0.31 |
